According to US11117903B2, “Pyridine derivatives” (Hoffmann-La Roche Inc., priority 2017, dated 2021):
pEC50: −log10 of the molar value. Like-named read-outs stand apart in the source and are kept apart here.

Biological target: T1, human CB2 receptors (Homo sapiens, UniProt P34972)
T1 construct: expressed in transfected cells; host or cells: CHO cells
Test: cAMP assay human CB2
Type: cell-based
Conditions: for Percent relative efficacy compared to the reference agonist CP55940 for which this value is set to +100%: negative values = inverse agonists, CP55940 = +100%
Description: The growth medium was exchanged with Krebs Ringer Bicarbonate buffer with 1 mM IBMX and incubated at 30° C. for 30 min. Compounds were added to a final assay volume of 100 μl and incubated for 30 min at 30° C. […] The time-resolved energy transfer is measured by a TRF reader (Evotec Technologies GmbH), equipped with a ND:YAG laser as excitation source. The plate is measured twice with the excitation at 355 nm and at the emission with a delay of 100 ns and a gate of 100 ns, total exposure time 10s at 730 (bandwidth 30 nm) or 645 nm (bandwidth 75 nm), respectively.
EC50 values were determined using Activity Base analysis (ID Business Solution, Limited).

[1] = CHO cells expressing human CB2 receptors, read-out: cAMP assay human CB2 EC50

T1 sequence (P34972 whole entry): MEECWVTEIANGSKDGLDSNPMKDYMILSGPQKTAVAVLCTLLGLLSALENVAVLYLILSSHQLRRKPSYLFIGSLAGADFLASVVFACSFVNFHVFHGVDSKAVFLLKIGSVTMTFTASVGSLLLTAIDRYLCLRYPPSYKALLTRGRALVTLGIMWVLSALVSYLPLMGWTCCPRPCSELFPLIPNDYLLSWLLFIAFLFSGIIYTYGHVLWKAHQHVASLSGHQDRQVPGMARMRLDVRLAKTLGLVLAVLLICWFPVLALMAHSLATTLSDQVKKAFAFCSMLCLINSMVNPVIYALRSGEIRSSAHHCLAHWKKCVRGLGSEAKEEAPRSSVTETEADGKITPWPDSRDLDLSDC

CC(C)C[C@@H](CO)NC(=O)c1cc(-c2ccc(Cl)cc2Cl)c(OCC2CC2)cn1 [Example 1, 5-(Cyclopropylmethoxy)-4-(2,4-dichlorophenyl)-N-[(2S)-1-hydroxy-4-methylpentan-2-yl]pyridine-2-carboxamide]
pEC50: 7.82
Percent relative efficacy compared to the reference agonist CP55940 for which this value is set to +100%: −40.1%

O=C(N[C@@H]1CCCC[C@@H]1O)c1cc(-c2ccc(Cl)cc2)c(OCC2CC2)cn1 [Example 2, 4-(4-Chlorophenyl)-5-(cyclopropylmethoxy)-N-[(1R,2S)-2-hydroxycyclohexyl]pyridine-2-carboxamide]
pEC50: 6.59
Percent relative efficacy compared to the reference agonist CP55940 for which this value is set to +100%: −90.6%

O=C(N[C@H]1CCCC[C@H]1O)c1cc(-c2ccc(Cl)cc2)c(OCC2CC2)cn1 [Example 3, 4-(4-Chlorophenyl)-5-(cyclopropylmethoxy)-N-[(1 S,2R)-2-hydroxycyclohexyl]pyridine-2-carboxamide]
pEC50: 7.33
Percent relative efficacy compared to the reference agonist CP55940 for which this value is set to +100%: −85.1%

CCC(CC)(NC(=O)c1cc(-c2ccc(Cl)cc2)c(OCC2CC2)cn1)C(=O)OC [Example 4, Methyl 2-[[4-(4-chlorophenyl)-5-(cyclopropylmethoxy)pyridine-2-carbonyl]amino]-2-ethylbutanoate]
pEC50: 7.84
Percent relative efficacy compared to the reference agonist CP55940 for which this value is set to +100%: −70.5%

CCC(CC)(NC(=O)c1cc(-c2ccc(Cl)c(Cl)c2)c(OCC2CC2)cn1)C(=O)OC [Example 5, Methyl 2-[[5-(cyclopropylmethoxy)-4-(3,4-dichlorophenyl)pyridine-2-carbonyl]amino]-2-ethylbutanoate]
pEC50: 8.16
Percent relative efficacy compared to the reference agonist CP55940 for which this value is set to +100%: −128.6%

CO[C@H]1CCCC[C@H]1NC(=O)c1cc(-c2ccc(Cl)cc2)c(OCC2CC2)cn1 [Example 6, 4-(4-chlorophenyl)-5-(cyclopropylmethoxy)-N-[(1R,2S)-2-methoxycyclohexyl]pyridine-2-carboxamide]
pEC50: 6.91
Percent relative efficacy compared to the reference agonist CP55940 for which this value is set to +100%: −102.9%

O=C(N[C@@H](CO)c1ccccc1)c1cc(OCC2CC2)c(Cl)cn1 [Example 7, 5-Chloro-4-(cyclopropylmethoxy)-N-[(1R)-2-hydroxy-1-phenylethyl]pyridine-2-carboxamide]
pEC50: 6.30
Percent relative efficacy compared to the reference agonist CP55940 for which this value is set to +100%: −41.7%

CNC(=O)[C@@H](NC(=O)c1cc(OCC2CC2)c(Cl)cn1)C(C)(C)C [Example 8, 5-Chloro-4-(cyclopropylmethoxy)-N-[(2S)-3,3-dimethyl-1-(methylamino)-1-oxobutan-2-yl]pyridine-2-carboxamide]
pEC50: 8.36
Percent relative efficacy compared to the reference agonist CP55940 for which this value is set to +100%: −141.9%

O=C(N[C@@H](c1ccccn1)C(F)(F)F)c1cc(OCC2CC2)c(Cl)cn1 [Example 9, (−) 5-Chloro-4-(cyclopropylmethoxy)-N-[2,2,2-trifluoro-1-pyridin-2-ylethyl]pyridine-2-carboxamide]
pEC50: 6.53
Percent relative efficacy compared to the reference agonist CP55940 for which this value is set to +100%: −114.7%

O=C(N[C@H](c1cccnc1)C(F)(F)F)c1cc(OCC2CC2)c(Cl)cn1 [Example 10, 5-Chloro-4-(cyclopropylmethoxy)-N-[(1R)-2,2,2-trifluoro-1-pyridin-3-ylethyl]pyridine-2-carboxamide]
pEC50: 5.81
Percent relative efficacy compared to the reference agonist CP55940 for which this value is set to +100%: −36.8%

CNC(=O)[C@H](CC(C)C)NC(=O)c1cc(OCC2CC2)c(Cl)cn1 [Example 11, 5-Chloro-4-(cyclopropylmethoxy)-N-[(2S)-4-methyl-1-(methylamino)-1-oxopentan-2-yl]pyridine-2-carboxamide]
pEC50: 6.74
Percent relative efficacy compared to the reference agonist CP55940 for which this value is set to +100%: −28.5%

CNC(=O)[C@@H](CC(C)C)NC(=O)c1cc(OCC2CC2)c(Cl)cn1 [Example 12, 5-Chloro-4-(cyclopropylmethoxy)-N-[(2R)-4-methyl-1-(methylamino)-1-oxopentan-2-yl]pyridine-2-carboxamide]
pEC50: 5.49
Percent relative efficacy compared to the reference agonist CP55940 for which this value is set to +100%: −40.1%

CNC(=O)[C@@H](NC(=O)c1cc(OCC2(C)COC2)c(C2CC2)cn1)C(C)(C)C [Example 13, 5-Cyclopropyl-N-[(2S)-3,3-dimethyl-1-(methylamino)-1-oxobutan-2-yl]-4-[(3-methyloxetan-3-yl)methoxy]pyridine-2-carboxamide]
pEC50 [1]: 7.58
Percent relative efficacy compared to the reference agonist CP55940 for which this value is set to +100%: −158.8%

CC(C)(C)c1nc(-c2cc(OCC3CC3)c(N3CC4(COC4)C3)cn2)no1 [Example 14, 6-[6-(5-tert-Butyl-1,2,4-oxadiazol-3-yl)-4-(cyclopropylmethoxy)pyridin-3-yl]-2-oxa-6-azaspiro[3.3]heptane]
pEC50: 7.44
Percent relative efficacy compared to the reference agonist CP55940 for which this value is set to +100%: −65.9%

CC(C)(C)OC(=O)N1CCC[C@H]1COc1cc(-c2noc(C(C)(C)C)n2)ncc1C1CC1 [Example 15, tert-Butyl (2S)-2-[[2-(5-tert-butyl-1,2,4-oxadiazol-3-yl)-5-cyclopropylpyridin-4-yl]oxymethyl]pyrrolidine-1-carboxylate]
pEC50: 5.82
Percent relative efficacy compared to the reference agonist CP55940 for which this value is set to +100%: −75.2%

CC(C)(C)OC(=O)N1CC[C@@H](Oc2cc(-c3noc(C(C)(C)C)n3)ncc2C2CC2)C1 [Example 16, tert-Butyl (3R)-3-[2-(5-tert-butyl-1,2,4-oxadiazol-3-yl)-5-cyclopropylpyridin-4-yl]oxypyrrolidine-1-carboxylate]
pEC50: 6.50
Percent relative efficacy compared to the reference agonist CP55940 for which this value is set to +100%: −103.1%

CC(C)(C)c1nc(-c2cc(OCc3cccc(S(C)(=O)=O)c3)c(C3CC3)cn2)no1 [Example 17, 5-tert-Butyl-3-[5-cyclopropyl-4-[(3-methylsulfonylphenyl)methoxy]pyridin-2-yl]-1,2,4-oxadiazole]
pEC50 [1]: 5.70
Percent relative efficacy compared to the reference agonist CP55940 for which this value is set to +100%: −49.9%

Cc1nnc(C(C)(NC(=O)c2cc(OCC(F)(F)F)c(C3CC3)cn2)C2CNC2)o1 (stereo not shown) [Example 18, N-[1-(azetidin-3-yl)-1-(5-methyl-1,3,4-oxadiazol-2-yl)ethyl]-5-cyclopropyl-4-(2,2,2-trifluoroethoxy)pyridine-2-carboxamide]
pEC50 [1]: 5.14
Percent relative efficacy compared to the reference agonist CP55940 for which this value is set to +100%: −48.7%

CCOC(=O)C(CC)(CC)NC(=O)c1cc(OCC2(C)COC2)c(C2CC2)cn1 [Example 19, Ethyl 2-[[5-cyclopropyl-4-[(3-methyloxetan-3-yl)methoxy]pyridine-2-carbonyl]amino]-2-ethylbutanoate]
pEC50: 6.83
Percent relative efficacy compared to the reference agonist CP55940 for which this value is set to +100%: 13%

Cc1nc(C(C)(CC2CC2)NC(=O)c2cc(OCC3(C)CC3(F)F)c(Cl)cn2)no1 (stereo not shown) [Example 20, 5-Chloro-N-[1-cyclopropyl-2-(5-methyl-1,2,4-oxadiazol-3-yl)propan-2-yl]-4-[(2,2-difluoro-1-methylcyclopropyl)methoxy]pyridine-2-carboxamide]
pEC50: 6.38
Percent relative efficacy compared to the reference agonist CP55940 for which this value is set to +100%: −150.8%

Cc1nc(C(C)(CC2CC2)NC(=O)c2cc(On3nnc4ccccc43)c(C(F)(F)F)cn2)no1 (stereo not shown) [Example 21, 4-(Benzotriazol-1-yloxy)-N-[1-cyclopropyl-2-(5-methyl-1,2,4-oxadiazol-3-yl)propan-2-yl]-5-(trifluoromethyl)pyridine-2-carboxamide]
pEC50: 7.06
Percent relative efficacy compared to the reference agonist CP55940 for which this value is set to +100%: −147.5%

CC(CC(N)=O)(NC(=O)c1cc(OCc2ccc(F)cn2)c(C2CC2)cn1)C1CC1 (stereo not shown) [Example 22, N-(4-Amino-2-cyclopropyl-4-oxobutan-2-yl)-5-cyclopropyl-4-[(5-fluoropyridin-2-yl)methoxy]pyridine-2-carboxamide]
pEC50: 7.33
Percent relative efficacy compared to the reference agonist CP55940 for which this value is set to +100%: −78.4%

Cc1nc([C@](C)(CC2CC2)NC(=O)c2cc(-c3ccc(F)nc3)c(OCc3ccccc3)cn2)no1 [Example 23, N-[(2S)-1-Cyclopropyl-2-(5-methyl-1,2,4-oxadiazol-3-yl)propan-2-yl]-4-(6-fluoropyridin-3-yl)-5-phenylmethoxypyridine-2-carboxamide]
pEC50: 5.99
Percent relative efficacy compared to the reference agonist CP55940 for which this value is set to +100%: −87.7%
